According to patent publication US20250312469A1 (CANGET BIOTEKPHARMA, priority 2024, published 2025):
Marks after values point to notes of the source that are not given here.

Columns and labels:
[1] = tested on: LNCaP, DU145 and PC-3 cells; assay: MTT cell growth/viability assay in PCa cells; assay type: cell-based, human
Protocol: MTT assay for determining cancer cell growth viability: The MTT assay was described previously (13). […] Briefly, ˜2500 viable cells with or without genetic manipulation were plated in each well in 96-well plates. […] MTT, a colorimetric substrate, was then added to a final concentration of 0.4 mg/mL to each well. Cells in 96-well plates were further incubated in a 5% CO2 incubator at 37° C. for 4 h, and then the medium was aspirated. The MTT metabolic product formazan was solubilized by adding 200 μl of DMSO to each well. Absorbance in the relevant wells was measured at 570 nm using an Ultra Microplate Reader (Bio-Tek Instruments).

[2] = Rat toxicology/MTD, non-clinically compatible FL118 HPMC suspension (Covance); settings: for % BW Change (Day 4) / BW Change (Day 4) / Mean body weight Day 1 / Mean body weight Day 4: 3.3 mg/kg/dose
Description: Twenty male and 20 female Hsd: Sprague Dawley®SDR rats were received from Envigo RMS, Inc. (Indianapolis, Indiana). Animals were acclimated to the test facility for 7 days prior to initiation.
Prior to group assignment, animals were excluded from the selection pool/sex to produce minimal variation. Animals were assigned to the study using a computerized procedure designed to achieve body weight balance with respect to group assignment with the following experimental design.
Doses were based on the most recently recorded scheduled body weight. Animals were checked twice daily (a.m. and p.m.) for mortality, abnormalities, and signs of pain or distress. Cage-side observations were conducted for each animal once daily during the dosing phase, except on days when detailed observations were conducted. Abnormal findings were recorded. Detailed observations were conducted for each animal once during the pre-dose phase, and on Days 1, 4 and 8 (prior to dosing, as applicable) of the dosing phase. Detailed observations were also collected for each animal on days of scheduled sacrifice (all surviving animals). On each day of dosing, cage-side observations were conducted for each animal approximately 1, 4, and 24 hours postdose. Postdose observations were based on the time dosing was completed for each group/sex. Body weights were recorded once during the pre-dose phase, and on Days 1, 4, and 8 (prior to dosing, as applicable) of the dosing phase. The amount of food consumed by each cage of was recorded Days 1 to 4, Days 4 to 8, and Days 8 to 9. Blood samples for hematology, coagulation, and clinical chemistry were collected from fasted toxicity animals via a jugular vein. Blood samples were collected on the day of scheduled sacrifice. […] The anticoagulants were sodium citrate for coagulation tests and potassium EDTA for hematology tests. Samples for clinical chemistry were collected without anticoagulant.
On Day 10 of the dosing phase, all surviving animals, having been fasted overnight, were anesthetized via isoflurane inhalation, exsanguinated, and necropsied. Terminal body weights were recorded for animals sacrificed at a scheduled interval. A macroscopic examination of the external features of the carcass; external body orifices; abdominal, thoracic, and cranial cavities; organs; and tissues was performed. Organ weights were recorded at the scheduled sacrifice. Paired organs were weighed together. Bone marrow smears (two slides) were prepared from the femur of each animal.
Various models of calculators, computers, and computer programs were used to analyze data in this study. Values in some tables (e.g., means, standard deviations, or individual values) may differ slightly from those in other tables, from individually calculated data, or from statistical analysis data, because different models round off or truncate numbers differently. However, neither the integrity nor the interpretation of the data was affected by these differences.
Data for each sex were analyzed separately; only data collected on or after the first day of dosing were analyzed statistically. Analysis of variance (ANOVA) and pairwise comparisons were used to analyze absolute body weight, Body weight change and continuous clinical pathology values. Levene's test was done to test for equality of variances between groups.

Whole blood stability = assay type: in vitro ADME, human
Protocol: Both matrices were adjusted to pH 7.4 prior to initiating the experiments. A DMSO stock as first prepared for the test article. […] The vials were kept in a benchtop Thermomixer for the duration of the experiment. Aliquots (100 μL) were taken at each time point (0, 15, 30, 60, and 120 minutes) and added to 96-well plates which had been pre-filled with 300 μL of acetonitrile (ACN). Samples were stored at 4° C. until the end of the experiment. […] Analytical conditions are outlined in Appendix 1.

ABCG2/BCRP = target: T1, ABCG2/BCRP (Homo sapiens, UniProt Q9UNQ0); settings: Caco-2; without and with Ko143
T1 sequence (Q9UNQ0 1-655): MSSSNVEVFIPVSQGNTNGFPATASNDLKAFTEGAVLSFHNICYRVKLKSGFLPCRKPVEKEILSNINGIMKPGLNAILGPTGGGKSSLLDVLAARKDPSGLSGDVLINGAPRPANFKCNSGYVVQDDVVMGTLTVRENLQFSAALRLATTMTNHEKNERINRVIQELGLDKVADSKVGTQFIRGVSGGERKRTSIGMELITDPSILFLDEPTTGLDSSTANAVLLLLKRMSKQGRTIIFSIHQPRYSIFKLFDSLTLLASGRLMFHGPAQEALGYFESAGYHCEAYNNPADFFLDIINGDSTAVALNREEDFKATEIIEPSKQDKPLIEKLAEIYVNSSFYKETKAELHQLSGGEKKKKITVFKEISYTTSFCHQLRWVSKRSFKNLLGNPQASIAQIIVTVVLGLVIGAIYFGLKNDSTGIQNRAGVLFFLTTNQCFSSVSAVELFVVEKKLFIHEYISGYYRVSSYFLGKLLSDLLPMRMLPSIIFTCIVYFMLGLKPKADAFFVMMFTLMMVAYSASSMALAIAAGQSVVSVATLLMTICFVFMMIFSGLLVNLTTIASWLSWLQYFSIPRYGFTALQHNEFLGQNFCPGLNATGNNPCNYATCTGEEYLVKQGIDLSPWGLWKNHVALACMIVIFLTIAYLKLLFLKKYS
Protocol: Cell monolayers were grown to confluence on collagen-coated, microporous, polycarbonate membranes in 12-well Costar® plates. […] The Transwell permeability assay buffer was Hanks' balanced salt solution (HBSS) containing 10 mM HEPES and 15 mM glucose at a pH of 7.4. The buffer in the receiver chamber also contained 1% bovine serum albumin. […] Cell monolayers were dosed on the apical side (A-to-B) or basolateral side (B-to-A) and incubated at 37° C. with 5% CO2 in a humidified incubator. Samples were taken from the donor and receiver chambers at 120 minutes. Each determination was performed in duplicate. The flux of lucifer yellow post-experimentally was also measured for each monolayer to ensure no damage was inflicted to the cell monolayers during the flux period. All samples were assayed by LC-MS/MS using electrospray ionization. […] The apparent permeability (Papp) and percent recovery were calculated as follows:
Where, dCr/dt is the slope of the cumulative concentration in the receiver compartment versus time in μM s^−1; Vr is the volume of the receiver compartment in cm^3; Vd is the volume of the donor compartment in cm^3; A is the area of the insert (1.13 cm^2 for 12-well Transwell); CA is the average of the nominal dosing concentration and the measured 120 minute donor concentration in μM; CN is the nominal concentration of the dosing solution in μM; Cr^final is the cumulative receiver concentration in M at the end of the incubation period; and Cd^final is the concentration of the donor in μM at the end of the incubation period.
Efflux ratio (ER) is defined as Papp (B-to-A)/Papp (A-to-B).

## CCC1(O)C(=O)OCc2c1cc1n(c2=O)Cc2cc3cc4c(cc3nc2-1)OCO4 (centres unmarked) [FL118]
[1]; 72h MTT
  cell growth inhibition in DDX5 KO DU145 cells: significantly increased resistance to FL118 treatment
  cell growth inhibition, DU145 vs LNCaP and PC-3: higher sensitivity to FL118-induced cell growth inhibition
[1]; LNCaP, DU145, 72 h
  cell growth inhibition with USP2a overexpression: enhances FL 118-mediated inhibition of PCa cell growth
[2]; Female
  % BW Change (Day 4): −14%
  BW Change (Day 4): −26* g
  Mean body weight Day 1: 192 g
  Mean body weight Day 4: 168* g
[2]; Male
  % BW Change (Day 4): −12%
  BW Change (Day 4): −25* g
  Mean body weight Day 1: 207 g
  Mean body weight Day 4: 183* g
[2]; oral, day 1 and day 8
  highest non-severely toxic dose (HNSTD): 1.65 mg/kg/dose
Whole blood stability; 0.5 μM
  half-life: long half-life
Whole blood stability; Human Whole Blood, 0 min
  Percent Remaining: 100%
Whole blood stability; Human Whole Blood, 15 min
  Percent Remaining: 108%
Whole blood stability; Human Whole Blood, 30 min
  Percent Remaining: 68%
Whole blood stability; Human Whole Blood, 60 min
  Percent Remaining: 61%
Whole blood stability; Human Whole Blood, 120 min
  Percent Remaining: 35%
Whole blood stability; both sexes, whole blood (sodium heparin), pH 7.4, Human Whole Blood
  half-life at 0.5 μM: 1.23 h
ABCG2/BCRP
  BCRP Substrate Classification: Negative (ER≥2.0 without Ko143, and reduced by <50% with Ko143: Negative)
